Test results published in PubChem BioAssay (NCI).
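Step 1: Grow cells in 96-well plates. Step 2: Expose to compound for 48 hours at 5 concentrations. Step 3: Interpolate endpoints linearly; if unreached, use highest concentration. TGI marks complete inhibition of growth.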

Experiments:
Assay in all cases: NCI tumour cell line growth inhibition, 48 h
OVCAR-8 ovarian = test system: OVCAR-8 ovarian
NCI-H460 lung = test system: NCI-H460 lung
U251 CNS = test system: U251 CNS
MCF7 breast = test system: MCF7 breast
RPMI-8226 leukemia = test system: RPMI-8226 leukemia
MALME-3M melanoma = test system: MALME-3M melanoma
786-0 renal = test system: 786-0 renal
MDA-MB-435 = test system: MDA-MB-435
SW-620 colon = test system: SW-620 colon
NCI/ADR-RES ovarian = test system: NCI/ADR-RES ovarian

| SMILES | TGI (OVCAR-8 ovarian) | TGI (NCI-H460 lung) | TGI (U251 CNS) | TGI (MCF7 breast) | TGI (RPMI-8226 leukemia) | TGI (MALME-3M melanoma) | TGI (786-0 renal) | TGI (MDA-MB-435) | TGI (SW-620 colon) | TGI (NCI/ADR-RES ovarian) |
| --- | --- | --- | --- | --- | --- | --- | --- | --- | --- | --- |
| O=C1CCCC1CN1CCCC1 (stereo not given) | 35.4 µM | > 58.4 µM | > 56.8 µM | 8.53 µM | 6.8 µM | 3.72 µM | 14.9 µM | 26.3 µM | 11.3 µM | 37.9 µM |
| CN(CC(=O)O)c1ncc2c(n1)CCCC2 | > 100 µM | > 100 µM | > 100 µM | > 100 µM | > 100 µM | > 100 µM | > 100 µM | > 100 µM | > 100 µM | > 100 µM |
| O=C(/C=C/c1cc2ccccc2o1)N1CCN(c2ccccn2)CC1 | > 100 µM | > 100 µM | > 100 µM | > 100 µM | > 100 µM | > 100 µM | > 100 µM | > 100 µM | > 100 µM | > 100 µM |
